US20070254938A1, “Preventive or Therapeutic Agent for Vascular Intimal Proliferative Disease” (priority 2004, published 2007)

Key:
[1] = tested on: intimal hyperplasia of the common carotid artery; test: Intimal hyperplasia of a blood vessel caused by scraping endothelium of common carotid artery in alloxan-induced diabetic rabbits; type: in vivo, Japanese white rabbits; conditions: 3 mg/kg orally once a day for 6 weeks; arteries removed 4 weeks after scraping endothelium; compared to the control group; FIG. 1
Description: Effect on Intimal Hyperplasia of a Blood vessel Caused by Scraping Endothelium of Common Carotid Artery in Rabbits
Diabetic model animals made by administrating alloxan (50 mg/kg) into Japanese white rabbits (body weight: 2.0 to 3.3 kg) were divided into 2 groups; one was a mitiglinide-treated group (n=5) in which mitiglinide calcium hydrate (3 mg/kg) suspended in 0.5% carboxymethylcellulose was administered orally once a day before feeding for 6 weeks from the next day of alloxan-administration to the day before experimental termination, and the other was the control group (n=4) in which 0.5% carboxymethylcellulose was administered in the same way. Two weeks after the alloxan-administration, the endothelium of the right common carotid artery was scraped using a balloon catheter, and then, the incision on the vessel wall was sutured with care not to cause stenosis. […] Four (4) weeks after the operation of scraping endothelium of a blood vessel, the bilateral common carotid arteries were removed, and the intimal, medial and luminal areas of the sections of the arteries were measured using a morphometric analyzer. Fasting plasma glucose levels were measured 2 weeks after the alloxan-administration (on the day of scraping the endothelium) and 6 weeks after the alloxan-administration (on the day of removing the arteries.

[2] = Fasting plasma glucose levels in alloxan-induced diabetic rabbits; type: in vivo, Japanese white rabbits; conditions: 3 mg/kg orally once a day
Description: Diabetic model animals made by administrating alloxan (50 mg/kg) into Japanese white rabbits (body weight: 2.0 to 3.3 kg) were divided into 2 groups; one was a mitiglinide-treated group (n=5) in which mitiglinide calcium hydrate (3 mg/kg) suspended in 0.5% carboxymethylcellulose was administered orally once a day before feeding for 6 weeks from the next day of alloxan-administration to the day before experimental termination, and the other was the control group (n=4) in which 0.5% carboxymethylcellulose was administered in the same way. Two weeks after the alloxan-administration, the endothelium of the right common carotid artery was scraped using a balloon catheter, and then, the incision on the vessel wall was sutured with care not to cause stenosis. The left common carotid artery was used as a side of Sham-operation (the normal group). Four (4) weeks after the operation of scraping endothelium of a blood vessel, the bilateral common carotid arteries were removed, and the intimal, medial and luminal areas of the sections of the arteries were measured using a morphometric analyzer. Fasting plasma glucose levels were measured 2 weeks after the alloxan-administration (on the day of scraping the endothelium) and 6 weeks after the alloxan-administration (on the day of removing the arteries.

Which “inhibitory effect on intimal hyperplasia (ratio of intimal area to medial area)” value [1] does the source give for `O=C(O)[C@H](CC(=O)N1C[C@H]2CCCC[C@H]2C1)Cc1ccccc1` [mitiglinide calcium hydrate, bis{(2S)-2-benzyl-3-(cis-hexahydro-2-isoindolinylcarbonyl)-propionic acid}calcium dihydrate] here?
Its value is “significant inhibitory effect”.

And the “influence on fasting plasma glucose level” value ([2]; 2 weeks after alloxan-administration, FIG. 2)?
The value was “no influence”.

What about the “influence on fasting plasma glucose level” value ([2]; 6 weeks after alloxan-administration, FIG. 3) of the same compound?
Its value is “no influence”.
